{
  "source": "patent US9682931B2",
  "about": "“Aryloyl(oxy or amino)pentafluorosulfanylbenzene compound, pharmaceutically acceptable salt thereof, and prodrugs thereof” (UBE INDUSTRIES, LTD., priority 2013, dated 2017)",
  "format_in_all_cases": "cell-based",
  "key": {"[1]": {"tested_on": "Salmonella typhimurium TA98 strain and TA100 strain", "test": "Growth inhibitory action and bactericidal action on salmonella (preincubation method, with and without S9 mix)", "settings": "TA98 and TA100, presence or absence of S9 mix; for Bactericidal action: lowest concentration at which all bacterial cells were killed; for Growth inhibition: lowest concentration at which growth was inhibited", "protocol": "Growth inhibitory action and bactericidal action on salmonella\n1) Preparation of Test-Substance Solution\nTest substances (compounds listed in Table 1) each were prepared by dissolving it in DMSO when used. Preparation was made in such a manner that the highest dose became 5000 μg/plate and the dose lower than this was prepared by a dilution method. In the table, reference numerals of individual compounds correspond to the numbers of the individual compounds synthesized in the above Examples (the same applies to the following Tables).\nSalmonella typhimurium TA98 strain and TA100 strain were used.\nThese were supplied by Japan Bioassay Research Center, proliferated and examined for genetic properties and other properties in accordance with customary methods, in advance. After these strains were confirmed to have these properties, they are cryopreserved (−80° C.) with a DMSO-added medium; and thawed for use in each test.\n3) A cryopreserved strain was thawed and inoculated in a 2.5% aqueous nutrient broth (OXOID No. 2) solution and cultured while shaking at 37° C. for 7 hours to obtain a cell suspension, which was subjected to tests.\nA minimum glucose agar plate medium (Vital Media AMT-S, manufactured by Kyokuto Pharmaceutical Industrial Co., Ltd.) was used.\nThe top agar was prepared when used by blending an aqueous solution of 0.5 mM L-histidine and 0.5 mM D-(+)-biotin with an aqueous solution prepared by adding Bacto Agar (Difco) (0.6%) and sodium chloride (0.5%).\nS9 was purchased from Kikkoman; whereas a cofactor was previously prepared in accordance with a method known in the art. They were mixed in a customary method to prepare S9 mix.\nUsing a test system containing S9 mix and a test system containing no S9 mix, a test was carried out in accordance with a preincubation method. As the dose selection, the highest dose was specified as […], which was then serially diluted in a common ratio of 2 to prepare a total of 15 doses to be used in the test.\nTo a sterile test tube, a test solution (0.1 mL) and 0.1 M Na-phosphate buffer or S9 mix (0.5 mL) and a cell suspension (0.1 mL) were sequentially dispensed. Pre-incubation was carried out at 37° C. for 20 minutes while shaking. After completion of the pre-incubation, top agar (2 mL) kept warm at 45° C. was added, mixed and placed on a minimum glucose agar plate medium. After solidification, the plate was turned upside down and cultured at 37° C. for 48 hours.\nAfter completion of the culture, the state of microbial growth was observed by a stereomicroscope. After a precipitate on the plate was observed, revertant colonies were counted by the naked eye or a colony counter.\n7) Criteria for Determination\nGrowth of both TA98 and TA100 strains was examined in the presence or absence of S9 mix. Among the resultant concentrations at which growth was inhibited, the lowest concentration was specified as the growth inhibitory concentration. Similarly, the bactericidal concentration was specified as the lowest concentration at which all bacterial cells were killed."}, "[2]": {"tested_on": "K562 human leukemia-derived cell lines", "test": "K562 human leukemia cell-proliferation inhibition test", "settings": "Homo sapiens, K562, 72 h, K562 cells, 72 hours, viable cells counted with trypan blue; read-out: IC50"}, "[3]": {"tested_on": "Staphylococcus aureus MRSAIID 1677 (methicillin-resistant staphylococcus aureus; MRSA)", "test": "Antimicrobial test, minimum inhibitory concentration (MIC), MRSA", "settings": "36±1° C., 24 hours", "protocol": "Antimicrobial/Antifungal Test\nMeasurement of the Minimum Inhibitory Concentration (MIC) of a Test Substance\nThe minimum inhibitory concentration (MIC) of test substances (Compound 3, Compound 7) on a microorganism was measured.\n1) Test Microbe (a) Staphylococcus aureus MRSAIID 1677 (methicillin-resistant staphylococcus aureus; MRSA) (b) Trichophyton mentagrophytes NBRC5466 (trichophyton)\n2) Preparation of Microbe Solution for Inoculation\nTest microbe (a): A strain cryopreserved was smeared on TSA medium and cultured at 36±1° C. for 24 hours. Grown colonies were scraped out and suspended in a test organism preparation solution, filtered with absorbent cotton. The number of cells was controlled to be about 10^6-7 CFU/mL. The test microbe solution prepared was serially diluted by 10-fold and cultured at 36±1° C. for 48 hours and the microbe cells were counted.\n3) Serial Dilution of Test Substance\nTwo-fold serial dilutions of a test substance were prepared in the following procedure. To a test substance (1 mg), a medium (5 mL) for measuring the sensitivity of each microbe strains was added to obtain a stock solution of 200 μg/mL. […]\nA test microbe solution (5 μL) was added dropwise to individual wells of the microplate. […] After culture, whether the microbe proliferated or not was determined by the naked eye. […]"}},
  "data": [
    {"smiles": "O=C(Nc1ccc(S(F)(F)(F)(F)F)cc1)c1cc(O)c(O)c(O)c1", "note": "[Compound 3, 4-(3,4,5-trihydroxybenzoylamino)pentafluorosulfanylbenzene]", "values": [
      {"measurement": "Bactericidal action", "setting": "[1]", "value": 625, "unit": "μg/plate"},
      {"measurement": "Growth inhibition", "setting": "[1]", "value": 19.5, "unit": "μg/plate"},
      {"measurement": "IC50", "setting": "[2]", "value": 0.81, "unit": "mg/L"},
      {"measurement": "MIC", "setting": "[3]", "value": 6.3, "unit": "mg/L"}
    ]},
    {"smiles": "O=C(Oc1ccc(S(F)(F)(F)(F)F)cc1)c1cc(O)c(O)c(O)c1", "note": "[Compound 7, 4-(3,4,5-trihydroxybenzoyloxy)pentafluorosulfanylbenzene]", "values": [
      {"measurement": "Bactericidal action", "setting": "[1]", "value": 156, "unit": "μg/plate"},
      {"measurement": "Growth inhibition", "setting": "[1]", "value": 19.5, "unit": "μg/plate"},
      {"measurement": "IC50", "setting": "[2]", "value": 1.9, "unit": "mg/L"},
      {"measurement": "MIC", "setting": "[3]", "value": 0.8, "unit": "mg/L"}
    ]}
  ]
}
